From US4223137A, “Carbostyril derivatives and process for preparing the same” (Otsuka Pharmaceutical Co., Ltd., priority 1976, dated 1980) come the findings set out here.

Series [1] has as its system β-adrenoreceptor. Kind of series: Persistence (duration) of inhibition of histamine-induced bronchospasm, anesthetized dogs. The class given is in vivo, dog. The settings on record: FIGURE, i.v. 1 μg/kg, versus Compound (2). On the procedure: The stimulating activity of the compounds of this invention on β-adrenoreceptor was determined as follows: Male hydrid adult dogs, weighing 10 to 15 kg, were anesthesized with sodium pentobartital administered intravenously at a level of 30 mg/kg of body weight. Each of the anesthesized dogs was secured on its back and a cannula was inserted into the trachea. Artificial respiration was conducted using a device according to the Konzett-Rossler method (Konzett H. & Rossler R., "Versuchsanordnug zu Untersuchungen an der Bronchial Moskolatur", Arch. Exp. Path., […], 195, 71-74, 27-40 (1940). The volume of the air which overflowed at the time of inhalation was measured through a pneumotachometer to determine the bronchial resistance and the values obtained were recorded on a polygraph. […] Sodium pentobartital was infused during the procedure at a dosage level of 4 mg/kg of body weight/hr using an automatic injector in order to inhibit spontaneous respiration and to maintain the anesthetic condition constant over the test period. The persistance time was determined by administering to a subject a test compound in such a dose that a histamine-induced bronchospasm is inhibited completely (100%), in the same manner as described above and observing the persistance of the activity of the test compound with the lapse of time.

Series [2] has as its system β-adrenoreceptor. In words: Heart rate (pulse) increase, i.v., anesthetized dogs. The class given is in vivo, dog (male hybrid adult dogs). On the procedure: (§1) The stimulating activity of the compounds of this invention on β-adrenoreceptor was determined as follows: Male hydrid adult dogs, weighing 10 to 15 kg, were anesthesized with sodium pentobartital administered intravenously at a level of 30 mg/kg of body weight. Each of the anesthesized dogs was secured on its back and a cannula was inserted into the trachea.
(§2) In the above procedure, histamine was employed as a bronchoconstrictor at a dosage level of 10 μg/kg of body weight, and an aqueous solution containing each of the test compounds and controls shown in Table 1 below was then administered to each of the anesthesized dogs through the femoral vein at the various dosage levels as shown in Table 1 below 1 minute before the administration of the histamine. Sodium pentobartital was infused during the procedure at a dosage level of 4 mg/kg of body weight/hr using an automatic injector in order to inhibit spontaneous respiration and to maintain the anesthetic condition constant over the test period.
(§3) ED50 values were calculated using a Dose Response curve. At the same time the pulse was measured through a transducer and the value was recorded on a polygraph.

Series [3] can be described thus: Acute toxicity by intravenous administration. The settings on record: rat, in vivo, i.v., male rats (dd strain, 18 to 22 g), fasted 12 hours, read-out: LD50 (50% lethal dose). How it is done: Further, the acute toxicity by intravenous administration was determined with respect to the test compounds shown in Table 2 below using 5 to 6 groups each containing 10 male rats (dd strain; body weight: 18 to 22 g) which had been fasted for 12 hours prior to the test. The LD50 (50% lethal dose) results are as follows.

In series [4] the target is T1, β-adrenoreceptor (Canis lupus familiaris, UniProt P54833).
T1 construct: from tissue; host or cells: airways of anesthetized dogs, in vivo
T1 sequence (P54833 whole entry): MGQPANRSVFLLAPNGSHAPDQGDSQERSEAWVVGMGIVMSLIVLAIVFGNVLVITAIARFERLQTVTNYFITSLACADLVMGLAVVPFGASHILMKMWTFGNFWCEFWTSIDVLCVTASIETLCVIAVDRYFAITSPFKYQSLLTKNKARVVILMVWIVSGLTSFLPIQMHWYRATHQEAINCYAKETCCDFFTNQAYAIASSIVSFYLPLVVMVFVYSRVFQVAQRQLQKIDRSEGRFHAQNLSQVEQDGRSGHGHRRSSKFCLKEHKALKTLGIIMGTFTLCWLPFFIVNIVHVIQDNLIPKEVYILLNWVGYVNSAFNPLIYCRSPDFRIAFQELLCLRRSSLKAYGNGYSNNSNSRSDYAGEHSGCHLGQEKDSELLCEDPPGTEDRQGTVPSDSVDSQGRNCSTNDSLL
Kind of series: Inhibition of histamine-induced bronchial resistance increase (bronchospasm), i.v., Konzett-Rossler method, anesthetized dogs. The format is in vivo, dog (male hybrid adult dogs). How it is done: as §1, §2, §3

In series [5] the test system is β2-receptor. In words: Separation of bronchial resistance effect from heart rate effect (β2 selectivity), anesthetized dogs. The format is in vivo, dog (male hybrid adult dogs). To be noted: i.v. How it is done:
The stimulating activity of the compounds of this invention on β-adrenoreceptor was determined as follows: Male hydrid adult dogs, weighing 10 to 15 kg, were anesthesized with sodium pentobartital administered intravenously at a level of 30 mg/kg of body weight. Each of the anesthesized dogs was secured on its back and a cannula was inserted into the trachea. Artificial respiration was conducted using a device according to the Konzett-Rossler method (Konzett H. & Rossler R., "Versuchsanordnug zu Untersuchungen an der Bronchial Moskolatur", Arch. Exp. Path., Pharmack, 195, 71-74, 27-40 (1940). The volume of the air which overflowed at the time of inhalation was measured through a pneumotachometer to determine the bronchial resistance and the values obtained were recorded on a polygraph.
as §2, §3

As for `CCNC(CC)C(O)c1ccc(OC(C)=O)c2[nH]c(=O)ccc12.Cl` (stereo not shown) [(4), 8-acetoxy-5-(1-hydroxy-2-ethylaminobutyl)carbostyril hydrochloride], the “duration of β-stimulation activity on histamine-induced bronchospasm” value in series [1] is “exhibit a long-lasting β-stimulation activity on histamine-induced bronchospasm as compared with that of the comparative compound”. The “Heart Rate (HR) ED25 beats/min, Compound” value in series [2] (ED25 beats/min, pulse increase, i.v., anesthetized dogs) worked out at 3.6 µg/kg. In addition, the “Heart Rate (HR) Relative Potency” value in series [2] (ED25 compared to isoproterenol as standard compound) was 45.0. Moreover, the LD50 (in general, the dose at which mortality reaches 50%) in series [3] is 105000 µg/kg. Moreover, the “Bronchial Resistance (BR) Relative Potency” value in series [4] (ED50 compared to isoproterenol as standard compound) came out at 3.81. Also, the ED50 (usually the dose at which the effect has come halfway, by size or by number of responders) in series [4] (dog, iv, read-out: Bronchial Resistance (BR) ED50, Compound) amounted to 0.61 µg/kg. Also, the “Separation Ratio HR(Relative Potency)/BR(Relative Potency)” value in series [5] came out at 11.8.
